One may read the IC50 as the concentration at which inhibition is half-maximal. The low end stands for greater potency in that assay, the high end for weaker potency in that assay.

Here are results for 14 compounds from patent US20260250289A1, “BICYCLIC HETEROCYCLES AND THEIR USE AS WRN INHIBITORS” (Novartis AG, priority 2022, published 2026).

One assay has as its system SW48 cells. The assay can be described thus: Proliferation assay SW48 (CellTiterGlo). Type of assay: cell-based. As to conditions: SW48 colon carcinoma cells, 96 hours, CellTiterGlo, geometric mean of at least 2, read-out: Proliferation Assay SW48 GI50. A digest of the protocol:
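SW48 cells, 2,000/well, treated after overnight seeding with eight 3-fold compound dilutions (0.1% DMSO) for 96 hours at 37° C. Viability read as ATP by CellTiterGlo luminescence, normalised to a day-0 plate and vehicle to give % growth; GI50 is geometric mean of ≥2 independent replicates.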
In general terms: ATP-based viability assays read luminescence as a measure of living cells.

The test system of the next assay is DLD1-WRN-KO cells. The assay can be described thus: Proliferation assay DLD1-WRN-KO (CellTiterGlo, off-target effects). Type of assay: cell-based. As to conditions: 96 hours, geometric mean of at least 2. A digest of the protocol:
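DLD1 cells with CRISPR knockout of WRN were exposed overnight-seeded to eight 3-fold compound dilutions (0.1% DMSO) for 96 h at 37 °C. Viability was read as ATP by CellTiterGlo luminescence against a day-0 plate, giving GI50 and residual viability at top concentration.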

The target of assay [1] is T1, WRN helicase (aa N517-P1238) (Homo sapiens, UniProt Q14191).
T1 construct: The core helicase motif of the WRN protein (aa N517-P1238) was produced for this assay; His (N); ZZ (N); 3C protease cleavage site (N); made in house; host or cells: Sf21 insect cells (baculovirus; virus and BIICs made in SF9)
The assay can be described thus: WRN ATPase assay (DNA dependent ATP hydrolysis, ADP-Glo). Type of assay: biochemical. As to conditions: 3 hours pre-incubation, 300 micromolar ATP, FLAP26 DNA; geometric mean of at least 2. A digest of the protocol: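 DNA-dependent ATP hydrolysis detected as ADP by ADP-Glo luminescence, using 300 μM ATP, 0.2 nM FLAP26 substrate and 10 nM WRN aa N517-P1238 (Tris pH 7.5 buffer, 2 mM MgCl2, 50 mM NaCl). IC50s fitted from normalized duplicate half-log dilutions; reported as geometric means of at least 2 replicates.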
In general terms: ADP-Glo first removes unused ATP, then detects ADP through luciferase.

The structures appear in SMILES notation. Like-named read-outs stand apart in the source and are kept apart here. Some results are limits rather than exact numbers.

T1 sequence (Q14191 517-1238): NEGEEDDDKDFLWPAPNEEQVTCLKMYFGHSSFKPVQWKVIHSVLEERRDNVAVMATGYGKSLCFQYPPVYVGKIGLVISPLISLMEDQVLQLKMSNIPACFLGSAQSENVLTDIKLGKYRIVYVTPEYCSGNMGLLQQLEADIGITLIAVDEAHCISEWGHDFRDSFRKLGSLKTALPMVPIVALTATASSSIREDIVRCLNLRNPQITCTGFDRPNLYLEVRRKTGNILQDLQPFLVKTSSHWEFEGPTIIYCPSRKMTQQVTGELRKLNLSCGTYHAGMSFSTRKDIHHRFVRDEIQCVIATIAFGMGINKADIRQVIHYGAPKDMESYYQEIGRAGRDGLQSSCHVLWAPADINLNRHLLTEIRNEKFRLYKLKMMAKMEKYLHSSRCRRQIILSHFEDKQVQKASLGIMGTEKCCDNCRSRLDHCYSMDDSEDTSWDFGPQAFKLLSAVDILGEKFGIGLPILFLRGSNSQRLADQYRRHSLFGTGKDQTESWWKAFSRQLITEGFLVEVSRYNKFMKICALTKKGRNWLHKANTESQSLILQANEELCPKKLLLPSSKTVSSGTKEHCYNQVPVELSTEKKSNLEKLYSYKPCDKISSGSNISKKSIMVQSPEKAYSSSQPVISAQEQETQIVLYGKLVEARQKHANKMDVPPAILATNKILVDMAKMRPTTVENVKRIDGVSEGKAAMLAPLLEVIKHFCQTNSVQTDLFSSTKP

Consider `CCc1c(N2CCN(C(C)=O)CC2)c(=O)n2nc(C3=CCOCC3)nc2n1CC(=O)Nc1ccc(C(F)(F)F)cc1Cl` [Example 59, 2-(6-(4-acetylpiperazin-1-yl)-2-(3,6-dihydro-2H-pyran-4-yl)-5-ethyl-7-oxo-[1,2,4]triazolo[1,5-a]pyrimidin-4(7H)-yl)-N-(2-chloro-4-(trifluoromethyl)phenyl)acetamide], for which the GI50 in the assay on SW48 cells (Homo sapiens, SW48, 96 h) is 1000 nM; with DLD1-WRN-KO cells it was over 10000 nM. The half-inhibitory concentration (IC50) in assay [1] amounted to 300 nM.

For the compound `CCc1c(N2CCN(C(=O)C3CCOC3)CC2)c(=O)n2nc(C3=CCCCO3)nc2n1CC(=O)Nc1ccc(C(F)(F)F)cc1` (stereo not drawn) [Example 60, 2-(2-(3,4-dihydro-2H-pyran-6-yl)-5-ethyl-7-oxo-6-(4-(tetrahydrofuran-3-carbonyl)piperazin-1-yl)-[1,2,4]triazolo[1,5-a]pyrimidin-4(7H)-yl)-N-(4-(trifluoromethyl)phenyl)acetamide], the GI50 was 3000 nM in the assay with SW48 cells and over 10000 nM in the assay with DLD1-WRN-KO cells. This compound had a 50% inhibitory concentration (IC50) in assay [1] of 300 nM.

As for `CCc1c(N2CCN(C(=O)C3CCOC3)CC2)c(=O)n2nc(C3=CCCCO3)nc2n1CC(=O)Nc1ccc(C(F)(F)F)cc1` (stereo not drawn) [Example 61, 2-(2-(3,4-dihydro-2H-pyran-6-yl)-5-ethyl-7-oxo-6-(4-(tetrahydrofuran-3-carbonyl)piperazin-1-yl)-[1,2,4]triazolo[1,5-a]pyrimidin-4(7H)-yl)-N-(4-(trifluoromethyl)phenyl)acetamide], the GI50 in the assay with SW48 cells was 4000 nM; in the assay on DLD1-WRN-KO cells it was over 10000 nM. Further, half-maximal inhibition in assay [1] (IC50) required 400 nM.

Turning to `CC(=O)N1CCN(c2c(C)n(CC(=O)Nc3ccc(S(F)(F)(F)(F)F)cc3C)c3nc(C4=CCOCC4)nn3c2=O)CC1` [Example 62, 2-(6-(4-acetylpiperazin-1-yl)-2-(3,6-dihydro-2H-pyran-4-yl)-5-methyl-7-oxo-[1,2,4]triazolo[1,5-a]pyrimidin-4(7H)-yl)-N-(2-methyl-4-(pentafluoro-l6-sulfaneyl)phenyl)acetamide], the GI50 is 1000 nM with SW48 cells (Homo sapiens, SW48, 96 h) and over 10000 nM with DLD1-WRN-KO cells. In assay [1], this compound came in with a concentration for half-maximal inhibition (IC50) of 500 nM.

`CC(=O)N1CCN(c2c(C)n(CC(=O)Nc3ccc(C(F)(F)F)cc3)c3nc(C4=CCOCC4)nn3c2=O)C[C@H]1C` [Example 63, (R)-2-(6-(4-acetyl-3-methylpiperazin-1-yl)-2-(3,6-dihydro-2H-pyran-4-yl)-5-methyl-7-oxo-[1,2,4]triazolo[1,5-a]pyrimidin-4(7H)-yl)-N-(4-(trifluoromethyl)phenyl)acetamide]: the GI50 is 4000 nM with SW48 cells (Homo sapiens, SW48, 96 h) and over 10000 nM with DLD1-WRN-KO cells. In assay [1], the midpoint of inhibition, the IC50, lay at 500 nM.

As to `CC(=O)N1CCN(c2c(C)n(CC(=O)Nc3ccc(C(F)(F)F)cc3C)c3nc(C4=CCOCC4)nn3c2=O)CC1` [Example 64, 2-(6-(4-acetylpiperazin-1-yl)-2-(3,6-dihydro-2H-pyran-4-yl)-5-methyl-7-oxo-[1,2,4]triazolo[1,5-a]pyrimidin-4(7H)-yl)-N-(2-methyl-4-(trifluoromethyl)phenyl)acetamide], the GI50 was 4000 nM with SW48 cells (Homo sapiens, SW48, 96 h) and over 10000 nM with DLD1-WRN-KO cells. For the same compound, the IC50 in assay [1] is 900 nM.

Regarding `Cc1c(N2CCN(C(=O)OCc3ccccc3)CC2)c(=O)n2nc(C3=CCOCC3)nc2n1CC(=O)Nc1ccc(C(F)(F)F)cc1` [Example 65, benzyl 4-(2-(3,6-dihydro-2H-pyran-4-yl)-5-methyl-7-oxo-4-(2-oxo-2-((4-(trifluoromethyl)phenyl)amino)ethyl)-4,7-dihydro-[1,2,4]triazolo[1,5-a]pyrimidin-6-yl)piperazine-1-carboxylate], the GI50 in the assay with SW48 cells (Homo sapiens, SW48, 96 h) was determined as 4000 nM; with DLD1-WRN-KO cells, 4000 nM. Also, 8000 nM corresponded to half-maximal inhibition in assay [1] (IC50).

For the compound `CCc1c(N2CCN(C(=O)c3nsnc3O)CC2)c(=O)n2nc(C3=CCOCC3)nc2n1CC(=O)Nc1ccc(C(F)(F)F)cc1Cl` [Example 66, N-(2-chloro-4-(trifluoromethyl)phenyl)-2-(2-(3,6-dihydro-2H-pyran-4-yl)-5-ethyl-6-(4-(4-hydroxy-1,2,5-thiadiazole-3-carbonyl)piperazin-1-yl)-7-oxo-[1,2,4]triazolo[1,5-a]pyrimidin-4(7H)-yl)acetamide], the GI50 in the assay on SW48 cells (Homo sapiens, SW48, 96 h) is 300 nM; in the assay on DLD1-WRN-KO cells it was over 10000 nM. This compound also yielded an IC50 in assay [1] of 30 nM.

As to `CCc1c(N2CCN(C(=O)c3ncn(C)c3O)CC2)c(=O)n2nc(C3=CCOCC3)nc2n1CC(=O)Nc1ccc(C(F)(F)F)cc1Cl` [Example 67, N-(2-chloro-4-(trifluoromethyl)phenyl)-2-(2-(3,6-dihydro-2H-pyran-4-yl)-5-ethyl-6-(4-(5-hydroxy-1-methyl-1H-imidazole-4-carbonyl)piperazin-1-yl)-7-oxo-[1,2,4]triazolo[1,5-a]pyrimidin-4(7H)-yl)acetamide], the GI50 is 3000 nM in the assay on SW48 cells (Homo sapiens, SW48, 96 h) and over 10000 nM in the assay on DLD1-WRN-KO cells. This compound also returned a concentration for half-maximal inhibition (IC50) in assay [1] of 300 nM.

On to `CCc1c(N2CCN(C(=O)c3c(F)ccc(F)c3O)CC2)c(=O)n2nc(C3=CCOCC3)nc2n1CC(=O)Nc1ccc(C(F)(F)F)cc1C` [Example 68, 2-(6-(4-(3,6-difluoro-2-hydroxybenzoyl)piperazin-1-yl)-2-(3,6-dihydro-2H-pyran-4-yl)-5-ethyl-7-oxo-[1,2,4]triazolo[1,5-a]pyrimidin-4(7H)-yl)-N-(2-methyl-4-(trifluoromethyl)phenyl)acetamide], for which the GI50 in the assay on SW48 cells (Homo sapiens, SW48, 96 h) was 100 nM; in the assay on DLD1-WRN-KO cells it was over 10000 nM. This compound also gave a half-inhibitory concentration (IC50) in assay [1] of 20 nM.

`CC(=O)N1CCN(c2c(C)n(CC(=O)Nc3ccc(C(F)(F)F)cc3)c3nc(C4=CCOCC4)nn3c2=O)CC1` [Example 69, 2-(6-(4-acetylpiperazin-1-yl)-2-(3,6-dihydro-2H-pyran-4-yl)-5-methyl-7-oxo-[1,2,4]triazolo[1,5-a]pyrimidin-4(7H)-yl)-N-(4-(trifluoromethyl)phenyl)acetamide]: the GI50 with SW48 cells (Homo sapiens, SW48, 96 h) was 4000 nM; in the assay on DLD1-WRN-KO cells, over 10000 nM. This compound returned an IC50 in assay [1] of 500 nM.

As to `CC(=O)N(C)Cc1ccc(-c2nc3n(CC(=O)Nc4ccc(C(F)(F)F)cc4)c(C)c(N4CCN(C(C)=O)CC4)c(=O)n3n2)cc1` [Example 70, 2-(6-(4-acetylpiperazin-1-yl)-5-methyl-2-(4-((N-methylacetamido)methyl)phenyl)-7-oxo-[1,2,4]triazolo[1,5-a]pyrimidin-4(7H)-yl)-N-(4-(trifluoromethyl)phenyl)acetamide], the GI50 with SW48 cells (Homo sapiens, SW48, 96 h) was 900 nM; in the assay on DLD1-WRN-KO cells, over 10000 nM. For the same compound, in assay [1], the IC50 turned out to be 70 nM.

Turning to `CC(=O)N1CC=C(c2nc3n(CC(=O)Nc4ccc(S(F)(F)(F)(F)F)cc4)c(C)c(N4CCN(C(C)=O)CC4)c(=O)n3n2)CC1` [Example 71, 2-(2-(1-acetyl-1,2,3,6-tetrahydropyridin-4-yl)-6-(4-acetylpiperazin-1-yl)-5-methyl-7-oxo-[1,2,4]triazolo[1,5-a]pyrimidin-4(7H)-yl)-N-(4-(pentafluoro-l6-sulfaneyl)phenyl)acetamide], the GI50 was 5000 nM with SW48 cells (Homo sapiens, SW48, 96 h) and over 10000 nM in the assay with DLD1-WRN-KO cells. Moreover, the IC50 in assay [1] was determined as 90 nM.

Take `CCc1ccc(NC(=O)Cn2c(C)c(N3CCN(C(C)=O)CC3)c(=O)n3nc(C4=CCOCC4)nc23)cc1C(F)(F)F` [Example 72, 2-(6-(4-acetylpiperazin-1-yl)-2-(3,6-dihydro-2H-pyran-4-yl)-5-methyl-7-oxo-[1,2,4]triazolo[1,5-a]pyrimidin-4(7H)-yl)-N-(4-ethyl-3-(trifluoromethyl)phenyl)acetamide]: the GI50 with SW48 cells (Homo sapiens, SW48, 96 h) is 2000 nM; in the assay with DLD1-WRN-KO cells it was over 10000 nM. Also, the IC50 in assay [1] turned out to be 100 nM.
